In article PMC6302136, “Quantitative Chemotherapeutic Profiling of Gynecologic Cancer Cell Lines Using Approved Drugs and Bioactive Compounds^” (Translational Oncology, 2018):
Where two headings read alike, the source gives them in different places. One block for each molecule: values may come before it. *1 amine or outer side, *2 acyl side, *3 side chain or, on linkers, in order; H or OH if unused. Where a SMILES comes first, the peptide text is derived from it. Bridges are numbered along the chain shown (N, C = ends). Roman numbers before positions name the chains, in order. [ ]: non-standard residue; d: D form. Actinocin(9to1) = Cc1c2oc3c(C)ccc(C(=O)[*:1])c3nc-2c(C(=O)[*:2])c(N)c1=O; NMeV = CN[C@H](C(=O)O)C(C)C; Sar = CNCC(=O)O

Assays:
TOV-21-G cells = experiment: qHTS ATPlite cell viability, TOV-21-G cells; type: cell-based, human; settings: for IC50: Homo sapiens, TOV21G, 48 h; for Avg SI: TOV-21-G selective compounds, vs HEK 293T, >100 = inactive in HEK293T
PA-1 cells = experiment: ATP content (ATPlite) cell viability assay in PA-1 cells; type: cell-based, human; settings: assay optimization, read-out: IC50 (PA-1)
CAOV-3 cells = experiment: ATP content (ATPlite) cell viability assay in CAOV-3 cells; type: cell-based, human; settings: assay optimization
Description: (§1) The ATPlite luminescence assay system assay kit was used to determine cell viability. The reagent was reconstituted and prepared as described by the manufacturer. To measure the cell death caused by the compounds, cells were cultured in 4 μl of media for 16 hours at 37°C with 5% CO2 in assay plates, followed by the addition of DMSO or 16 SOC chemotherapeutic compounds dissolved in DMSO. SOC compounds were dosed at 11 concentrations (1:3 dilution) in quadruplicate from 57.5 μM to 0.977 nM using the automated Wako 1536 Pin Tool workstation and incubated at 37°C with 5% CO2 for 24, 48, or 72 hours. Four microliters of ATPlite, the ATP monitoring reagent, was then added to each well of the assay plates using the Multidrop Combi reagent dispenser followed by incubation for 15 minutes at room temperature. The resulting luminescence was measured using the ViewLux plate reader. Data were normalized for each drug using the largest luminescence value as 100% full cell viability (0% cell killing) and to the smallest luminescence value 0% viability (100% cell killing).

[1] = tested on: 11 gynecologic cancer cell lines; experiment: qHTS ATPlite cell viability, gynecologic cancer cell lines (ovarian, cervical, placental); type: cell-based, human; settings: for IC90 / IC50: Homo sapiens; for Cell Lines Active: number of the 11 cancer cell lines in which the compound is active (<1 μM potency, >70% efficacy)
Description: as §1
(§2) A qHTS [79], in which each compound was assayed in five concentrations (0.092, 0.46, 2.3, 11.5, and 57.5 μM), was performed for the primary compound screen using the NPC [80] and NPACT drug libraries at NCATS. The OBGYN cancer and HEK 293T control cells were seeded into 1536-well assay plates at 1000 cells per 4 μl/well and incubated at 37°C in 5% CO2 for 48 hours. The ATPlite assay to determine the IC50 values for each compound was conducted as described above. Plates were processed on the fully integrated Kalypsys robotic system.

HEK 293T cells [2] = experiment: cells; settings: 48 h
Description: as §1, §2

[3] = tested on: ovarian cancer cell lines; experiment: qHTS ATPlite cell viability, ovarian cancer cell lines; type: cell-based, human
[4] = tested on: placental cancer cell lines (JAR, JEG-3); experiment: qHTS ATPlite cell viability, placental cancer cell lines; type: cell-based, human; settings: Homo sapiens, JEG-3; read-out: IC50 for the placental lines
Description: as §1
The ATPlite assay to determine the IC50 values for each compound was conducted as described above. Plates were processed on the fully integrated Kalypsys robotic system.

[5] = tested on: cervical cancer cell lines (HeLa, Ca Ski, C-33 A); experiment: qHTS ATPlite cell viability, cervical cancer cell lines; type: cell-based; settings: Homo sapiens
HEK 293T cells [6] = tested on: HEK 293T cells; set-up: method as in PMID 31498718; settings: CellTiterGlo, cited from earlier work
[7] = cited from earlier work
HDAC 1/2/3 = settings: against HDAC 1/2/3 only; cited from earlier work
[8] = tested on: ovarian and placental cancer cell lines; experiment: qHTS ATPlite cell viability, ovarian + placental cancer cell lines; type: cell-based, human; settings: for IC50: Homo sapiens, 48 h; for Average SI: vs HEK 293T, >100 = inactive in HEK293T
Description: as §1, §2

[9] = tested on: ovarian and cervical cancer cell lines; experiment: qHTS ATPlite cell viability, ovarian + cervical cancer cell lines; type: cell-based, human; settings: Ovarian + cervical cancer cell line killer
Description: A qHTS [79], in which each compound was assayed in five concentrations (0.092, 0.46, 2.3, 11.5, and 57.5 μM), was performed for the primary compound screen using the NPC [80] and NPACT drug libraries at NCATS. […]

HDAC 1/2/3/11 = settings: inhibits only HDAC 1/2/3/11; cited from earlier work
[10] = average IC90 over the cell lines in which the compound is active, read-out: IC90
[11] = Pan-GYN cancer cell line killer, vs HEK 293T, >100 = inactive in HEK293T (efficacy <50%)
[12] = Ovarian + placental cancer cell line killer

SMILES: CCOc1cc2ncc(C#N)c(Nc3ccc(OCc4ccccn4)c(Cl)c3)c2cc1NC(=O)/C=C/CN(C)C [Neratinib]
IC50 (TOV-21-G cells; read-out: Avg IC50 (μM)): 0.619 µM | Avg SI (TOV-21-G cells): >100

SMILES: CC(=O)OC(C)(C)/C=C/C(=O)[C@](C)(O)[C@H]1[C@H](O)C[C@@]2(C)[C@@H]3CC=C4[C@H](C[C@H](O)C(=O)C4(C)C)[C@]3(C)C(=O)C[C@]12C [Curcubitacin B]
IC50 (PA-1 cells; 48 hours incubation): 63.2 nM | IC50 (PA-1 cells; 72 hours incubation): 61.8 nM | IC50 (CAOV-3 cells; 24 hours incubation): 18.1 nM | IC50 (CAOV-3 cells; 48 hours incubation): ~20.6 nM | IC50 (CAOV-3 cells; 72 hours incubation): 22.2 nM

IC90 [1, 10]: 719 nM | IC50 ([3]; Homo sapiens, read-out: IC50 for the ovarian lines): 343 nM | IC50 [4]: 516 nM | IC50 [5]: 224 nM
SMILES: Cc1[nH]c2ccccc2c1CCNCc1ccc(/C=C/C(=O)NO)cc1 [Panobinostat]
IC50 ([1]; toxic compounds, average over all cancer cell lines, 48 h, mean ± S.D., read-out: Average IC50): 0.355 ± 0.268 µM | Cell Lines Active [1]: 11 | Average SI ([1]; toxic compounds, selectivity index vs HEK 293T, average over all cancer cell lines, mean ± S.D.): 0.92 ± 0.57 | Efficacy (%) (HEK 293T toxicity) (HEK 293T cells [2]; HEK 293T, this screen (ATPlite)): 82.6% | IC50 (HEK 293T cells [2]; Homo sapiens, HEK-293T, read-out: IC50 (HEK 293T toxicity)): 210 nM | toxicity to HEK 293T cells (HEK 293T cells [2]; human): equally toxic to HEK 293T cells | Efficacy (%) (independent screen, HEK 293T) (HEK 293T cells [6]): 85.5% | Independent Screen (confirmation of HEK 293T toxicity) (HEK 293T cells [6]): Confirmed toxic | IC50 (HEK 293T cells [6]; independent screen): 162 nM | Cmax ([7]; oral administration, read-out: Cmax human plasma concentration, range): 38 to 119 nM | Cmax ([7]; oral administration, read-out: median Cmax human plasma concentration): 61 nM

SMILES: Nc1ccccc1NC(=O)c1ccc(CNC(=O)OCc2cccnc2)cc1 [Entinostat]
IC50 ([1]; Pan-GYN cancer cell line killer, mean of all cell lines fulfilling criteria, 48 h, read-out: Average IC50): 7.11 ± 6.62 µM | Average SI [1, 11]: >100 | Average SI ([1]; Pan-GYN cancer cell line killer, vs HEK 293T, >100 = inactive in HEK293T (efficacy <50%), listed as entinostat): > 100 | Cmax ([7]; humans, 15 mg, read-out: Cmax): 460 nM | potency of HDAC inhibition (HDAC 1/2/3): submicromolar potency

SMILES: Cc1c2oc3c(C)ccc(C(=O)N[C@@H]4C(=O)N[C@H](C(C)C)C(=O)N5CCC[C@H]5C(=O)N(C)CC(=O)N(C)[C@@H](C(C)C)C(=O)O[C@@H]4C)c3nc-2c(C(=O)N[C@@H]2C(=O)N[C@H](C(C)C)C(=O)N3CCC[C@H]3C(=O)N(C)CC(=O)N(C)[C@@H](C(C)C)C(=O)O[C@@H]2C)c(N)c1=O [Actinomycin D] (I: T[dV]P[Sar][NMeV] / II: T[dV]P[Sar][NMeV]; ester I:1-I:C, II:1-II:C; linker I:N-II:N via Actinocin(9to1))
IC90 ([1]; read-out: average IC90): 512 nM | IC50 ([8]; read-out: Average IC50 (μM)): 0.78 ± 0.222 µM | Average SI [8, 12]: >100 | Average SI ([8]; Ovarian + placental cancer cell line killer, listed as actinomycin D): > 100

SMILES: Cc1cnc(Nc2ccc(OCCN3CCCC3)cc2)nc1Nc1cccc(S(=O)(=O)NC(C)(C)C)c1 [Fedratinib]
IC50 ([8]; Ovarian + placental cancer cell line killer, mean of cell lines fulfilling criteria, read-out: Average IC50): 13.1 ± 7.51 µM | Average SI [8, 12]: >100 | Average SI ([8]; Ovarian + placental cancer cell line killer, listed as fedratinib): > 100 | selective killing of ovarian cancer lines ([3]; SI of 5 or greater, six ovarian lines): selectivity killed all six ovarian cancer lines

SMILES: CNC(=O)c1nn(C)c2c1C(C)(C)Cc1cnc(Nc3ccc(N4CCN(C)CC4)cc3)nc1-2 [Milciclib, N,1,4,4-tetramethyl-8-{[4-(4-methylpiperazin-1-yl)phenyl]amino}-4,5-dihydro-1H-py razolo[4,3-h]quinazoline-3-carboxamide]
IC50 (TOV-21-G cells; TOV-21-G, confirmation screen, read-out: Avg IC50): 0.0897 µM | Avg SI (TOV-21-G cells): 50.1

IC90 [1, 10]: 218 nM | IC50 ([1]; average over the cell lines in which the compound was active, read-out: average IC50): 0.15 µM
SMILES: CC(C)C[C@H](NC(=O)[C@H](Cc1ccccc1)NC(=O)c1cnccn1)B(O)O [Bortezomib]
Cell Lines Active [1]: 8 | Cmax ([7]; intravenous dose, read-out: Cmax): 580 nM

SMILES: Cc1cc(CN2CCN(c3c(Br)cnc4nc(-c5ccc(N6CCN(C)CC6)cc5)[nH]c34)CC2)no1 [CCT137690]
IC50 ([9]; mean of cell lines fulfilling criteria, 48 h): 20 ± 7.02 µM | Average SI ([9]; vs HEK 293T, >100 = inactive in HEK293T): >100

SMILES: Nc1ccccc1NC(=O)c1ccc(CNc2nccc(-c3cccnc3)n2)cc1 [Mocetinostat]
IC50 ([1]; 48 h, read-out: Average IC50 (μM)): 2.76 ± 1.98 µM | Average SI [1, 11]: >100 | Average SI ([1]; Pan-GYN cancer cell line killer, vs HEK 293T, >100 = inactive in HEK293T (efficacy <50%), listed as mocetinostat): > 100 | Cmax ([7]; 10 mg/kg, in humans, read-out: Cmax): ~21400 nM | Cmax ([7]; 40 mg/kg, in humans, read-out: Cmax): 75700 nM | potency of HDAC inhibition (HDAC 1/2/3/11): low micromolar potency or below
